Test results reported in patent US9108921B2, “Therapeutic compounds and compositions” (AGIOS PHARMACEUTICALS, INC, priority 2014, dated 2015).

Columns and labels:
PKR R510Q = PKR R510Q (Homo sapiens, UniProt P30613, R510Q); assay: PKR Mutant Assay, AC50 against PKR R510Q; assay type: biochemical; details: mutant PKR R510Q enzyme
Outline: (§1)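 Human PKR (WT or mutant, 80-400 ng/well) in 50 mM Tris pH 7.5, 100 mM KCl, 5 mM MgCl2, 1 mM DTT, 0.03% BSA with PEP 0.1-0.5 mM, NADH 180 uM and LDH, preincubated 60 min at room temperature with compound (11-point 3-fold series from 100 μM final, 1% DMSO). ADP 0.22-1.65 mM started reaction; A340 followed.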

PKR R532W = PKR R532W (Homo sapiens, UniProt P30613, R532W); assay: PKR Mutant Assay, AC50 against PKR R532W; assay type: biochemical; details: mutant PKR R532W enzyme
Outline: as §1

PKR WT [1] = target: T1, PKR WT (Homo sapiens, UniProt P30613); assay: PKR WT enzymatic AC50 assay; assay type: biochemical; details: wild type PKR
Outline: as §1

PKR WT [2] = target: T1, PKR WT; assay: PKR WT cell based AC50 assay; details: wild type PKR

T1 sequence (P30613 whole entry): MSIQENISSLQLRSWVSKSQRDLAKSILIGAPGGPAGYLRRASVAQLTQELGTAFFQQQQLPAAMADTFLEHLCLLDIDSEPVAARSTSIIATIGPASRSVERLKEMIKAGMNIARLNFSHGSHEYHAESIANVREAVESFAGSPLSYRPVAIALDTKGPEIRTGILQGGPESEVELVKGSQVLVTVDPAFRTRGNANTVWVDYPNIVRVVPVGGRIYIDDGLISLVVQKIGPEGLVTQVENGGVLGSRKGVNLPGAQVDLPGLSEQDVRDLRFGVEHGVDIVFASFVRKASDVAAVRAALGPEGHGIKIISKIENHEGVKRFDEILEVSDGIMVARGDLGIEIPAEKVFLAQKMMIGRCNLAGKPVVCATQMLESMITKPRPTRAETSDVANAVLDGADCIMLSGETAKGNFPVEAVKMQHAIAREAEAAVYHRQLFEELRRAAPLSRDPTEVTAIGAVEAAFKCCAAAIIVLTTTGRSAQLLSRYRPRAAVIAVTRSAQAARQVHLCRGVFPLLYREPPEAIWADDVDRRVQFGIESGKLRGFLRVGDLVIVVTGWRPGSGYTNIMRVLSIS
Chain of PKR R532W (P30613 whole entry R532W): as the sequence (P30613 whole entry) above, with R532W counted along it
Chain of PKR R510Q (P30613 whole entry R510Q): as the sequence (P30613 whole entry) above, with R510Q counted along it

AC50 (PKR R510Q) | AC50 (PKR R532W) | AC50 (PKR WT [1]) | AC50 (PKR WT [2]) | Structure (SMILES)
101 to 1000 nM | < 100 nM | < 100 nM | < 100 nM | O=C(c1ccc(NS(=O)(=O)c2cccc3cccnc23)cc1)N1CCC(O)(c2cccc(C(F)(F)F)c2)CC1 [Compound 199, N-(4-(4-hydroxy-4-(3-(trifluoromethyl)phenyl)piperidine-1-carbonyl)phenyl)quinoline-8-sulfonamide]
101 to 1000 nM | < 100 nM | < 100 nM | 101 to 1000 nM | O=C(c1ccc(NS(=O)(=O)c2cccc3cccnc23)cc1)N1CCC(O)(Cc2cccnc2)CC1 [Compound 185, N-(4-(4-hydroxy-4-(pyridin-3-ylmethyl)piperidine-1-carbonyl)phenyl)quinoline-8-sulfonamide]
< 100 nM | < 100 nM | < 100 nM | < 100 nM | CC(C)CCC1(O)CCN(C(=O)c2ccc(NS(=O)(=O)c3cccc4scnc34)cc2)CC1 [Compound 392, N-(4-(4-hydroxy-4-isopentylpiperidine-1-carbonyl)phenyl)benzo[d]thiazole-4-sulfonamide]
< 100 nM | < 100 nM | < 100 nM | < 100 nM | O=C(c1ccc(NS(=O)(=O)c2cccc3cccnc23)cc1OC(F)(F)F)N1CCC(O)(c2ccccc2Cl)CC1 [Compound 136, N-(4-(4-(2-chlorophenyl)-4-hydroxypiperidine-1-carbonyl)-3-(trifluoromethoxy)phenyl)quinoline-8-sulfonamide]
101 to 1000 nM | < 100 nM | < 100 nM | < 100 nM | O=C(c1ccc(NS(=O)(=O)c2cccc3scnc23)cc1)N1CCC(O)(CCC=C(F)F)CC1 [Compound 393, N-(4-(4-(4,4-difluorobut-3-en-1-yl)-4-hydroxypiperidine-1-carbonyl)phenyl)benzo[d]thiazole-4-sulfonamide]
< 100 nM | < 100 nM | < 100 nM | 101 to 1000 nM | O=C(c1ccc(NS(=O)(=O)c2cccc3cccnc23)cc1)N1CCC(O)(c2ccccc2OC(F)(F)F)CC1 [Compound 150, N-(4-(4-hydroxy-4-(2-(trifluoromethoxy)phenyl)piperidine-1-carbonyl)phenyl)quinoline-8-sulfonamide]
< 100 nM | < 100 nM | < 100 nM | 101 to 1000 nM | CC(CC1(O)CCN(C(=O)c2ccc(NS(=O)(=O)c3cccc4c(O)ncnc34)cc2)CC1)C(F)(F)F (stereo not shown) [Compound 431]
101 to 1000 nM | < 100 nM | < 100 nM | 101 to 1000 nM | O=C(c1ccc(NS(=O)(=O)c2cccc3scnc23)cc1)N1CCC(O)(Cc2ccccc2C(F)(F)F)CC1 [Compound 412, N-(4-(4-hydroxy-4-(2-(trifluoromethyl)benzyl)piperidine-1-carbonyl)phenyl)benzo[d]thiazole-4-sulfonamide]
101 to 1000 nM | < 100 nM | < 100 nM | 101 to 1000 nM | CC(F)(F)CCC1(O)CCN(C(=O)c2ccc(NS(=O)(=O)c3cccc4scnc34)cc2)CC1 [Compound 387, N-(4-(4-(3,3-difluorobutyl)-4-hydroxypiperidine-1-carbonyl)phenyl)benzo[d]thiazole-4-sulfonamide]
< 100 nM | < 100 nM | < 100 nM | < 100 nM | O=C(c1ccc(NS(=O)(=O)c2cccc3scnc23)cc1)N1CCC(O)(CCCC(F)F)CC1 [Compound 389, N-(4-(4-(4,4-difluorobutyl)-4-hydroxypiperidine-1-carbonyl)phenyl)benzo[d]thiazole-4-sulfonamide]
< 100 nM | < 100 nM | < 100 nM | < 100 nM | O=C(c1ccc(NS(=O)(=O)c2cccc3nccnc23)cc1)N1CCC(O)(CCC=C(F)F)CC1 [Compound 399, N-(4-(4-(4,4-difluorobut-3-en-1-yl)-4-hydroxypiperidine-1-carbonyl)phenyl)quinoxaline-5-sulfonamide]
101 to 1000 nM | < 100 nM | < 100 nM | < 100 nM | Cc1cccc(CC2(O)CCN(C(=O)c3ccc(NS(=O)(=O)c4cccc5cccnc45)cc3)CC2)c1 [Compound 118, N-(4-(4-hydroxy-4-(3-methylbenzyl)piperidine-1-carbonyl)phenyl)quinoline-8-sulfonamide]
< 100 nM | < 100 nM | < 100 nM | < 100 nM | O=C(c1ccc(NS(=O)(=O)c2cccc3scnc23)cc1)N1CCC(O)(Cc2ccccc2C(F)(F)F)CC1 [Compound 125]
< 100 nM | < 100 nM | < 100 nM | < 100 nM | O=C(c1ccc(NS(=O)(=O)c2cccc3cccnc23)cc1)N1CCC(O)(Cc2ccccc2C(F)(F)F)CC1 [Compound 109, N-(4-(4-hydroxy-4-(2-(trifluoromethyl)benzyl)piperidine-1-carbonyl)phenyl)quinoline-8-sulfonamide]
101 to 1000 nM | < 100 nM | 101 to 1000 nM | 101 to 1000 nM | CC(F)(F)CCC1(O)CCN(C(=O)c2ccc(NS(=O)(=O)c3cccc4nccnc34)cc2OC(F)F)CC1 [Compound 436]
< 100 nM | < 100 nM | < 100 nM | 101 to 1000 nM | CC(F)(F)CCC1(O)CCN(C(=O)c2ccc(NS(=O)(=O)c3cc(F)cc4sc(N)nc34)cc2)CC1 [Compound 435]
101 to 1000 nM | < 100 nM | < 100 nM | < 100 nM | CC(C)CC1(O)CCN(C(=O)c2ccc(NS(=O)(=O)c3cccc4nccnc34)cc2OC(F)F)CC1 [Compound 213, N-(3-(difluoromethoxy)-4-(4-hydroxy-4-isobutylpiperidine-1-carbonyl)phenyl)quinoxaline-5-sulfonamide]
< 100 nM | < 100 nM | < 100 nM | < 100 nM | O=C(c1ccc(NS(=O)(=O)c2cccc3cccnc23)cc1)N1CCC(O)(Cc2c(F)cccc2F)CC1 [Compound 120, N-(4-(4-(2,6-difluorobenzyl)-4-hydroxypiperidine-1-carbonyl)phenyl)quinoline-8-sulfonamide]
101 to 1000 nM | < 100 nM | < 100 nM | < 100 nM | O=C(c1ccc(NS(=O)(=O)c2cccc3nccnc23)cc1)N1CCC(O)(CCC(F)=C(F)F)CC1 [Compound 398, N-(4-(4-hydroxy-4-(3,4,4-trifluorobut-3-enyl)piperidine-1-carbonyl)phenyl)quinoxaline-5-sulfonamide]
101 to 1000 nM | < 100 nM | < 100 nM | < 100 nM | O=C(c1ccc(NS(=O)(=O)c2cccc3cccnc23)cc1)N1CCC(O)(Cc2cccnc2F)CC1 [Compound 168, N-(4-(4-((2-fluoropyridin-3-yl)methyl)-4-hydroxypiperidine-1-carbonyl)phenyl)quinoline-8-sulfonamide]
101 to 1000 nM | < 100 nM | < 100 nM | 101 to 1000 nM | O=C(c1ccc(NS(=O)(=O)c2cc(F)cc3scnc23)cc1)N1CCC(O)(c2ccccc2Cl)CC1 [Compound 401, N-(4-(4-(2-chlorophenyl)-4-hydroxypiperidine-1-carbonyl)phenyl)-6-fluorobenzo[d]thiazole-4-sulfonamide]
101 to 1000 nM | < 100 nM | < 100 nM | < 100 nM | O=C(c1ccc(NS(=O)(=O)c2cccc3nccnc23)cc1)N1CCC(O)(CCCC(F)F)CC1 [Compound 400, N-(4-(4-(4,4-difluorobutyl)-4-hydroxypiperidine-1-carbonyl)phenyl)quinoxaline-5-sulfonamide]
< 100 nM | < 100 nM | < 100 nM | < 100 nM | Nc1nc2c(S(=O)(=O)Nc3ccc(C(=O)N4CCC(O)(c5ccccc5Cl)CC4)cc3)cccc2s1 [Compound 407, 2-amino-N-(4-(4-(2-chlorophenyl)-4-hydroxypiperidine-1-carbonyl)phenyl)benzo[d]thiazole-4-sulfonamide]
101 to 1000 nM | < 100 nM | < 100 nM | < 100 nM | O=C(c1ccc(NS(=O)(=O)c2cccc3cccnc23)cc1)N1CCC(O)(CC2CC2(F)F)CC1 (stereo not shown) [Compound 176, N-(4-(4-((2,2-difluorocyclopropyl)methyl)-4-hydroxypiperidine-1-carbonyl)phenyl)quinoline-8-sulfonamide]
101 to 1000 nM | < 100 nM | < 100 nM | < 100 nM | O=C(c1ccc(NS(=O)(=O)c2cccc3cccnc23)cc1)N1CCC(O)(c2cccc(C(F)(F)F)n2)CC1 [Compound 174, N-[4-[4-hydroxy-4-[6-(trifluoromethyl)pyridin-2-yl]piperidine-1-carbonyl]phenyl]quinoline-8-sulfonamide]
101 to 1000 nM | < 100 nM | < 100 nM | 101 to 1000 nM | O=C(c1ccc(NS(=O)(=O)c2cccc3cccnc23)cc1)N1CCC(O)(c2ncccc2F)CC1 [Compound 148, N-(4-(4-(3-fluoropyridin-2-yl)-4-hydroxypiperidine-1-carbonyl)phenyl)quinoline-8-sulfonamide]
101 to 1000 nM | 101 to 1000 nM | 101 to 1000 nM | 101 to 1000 nM | CC(C)CC1(O)CCN(C(=O)c2ccc(NS(=O)(=O)c3cccc4ocnc34)cc2)CC1 [Compound 379, N-(4-(4-hydroxy-4-isobutylpiperidine-1-carbonyl)phenyl)benzo[d]oxazole-4-sulfonamide]
< 100 nM | < 100 nM | < 100 nM | < 100 nM | O=C(c1ccc(NS(=O)(=O)c2cccc3nccnc23)cc1)N1CCC(O)(CCCC(F)(F)F)CC1 [Compound 397, N-(4-(4-hydroxy-4-(4,4,4-trifluorobutyl)piperidine-1-carbonyl)phenyl)quinoxaline-5-sulfonamide]
